Laboratory results from patent US7943606B2, “Compositions and methods to control abnormal cell growth” (CanCure Laboratories, LLC, priority 2005, dated 2011).

Experiments:
[1] = tested on: choline transport; test: [14C]choline uptake and metabolism in AN3CA, MCF-7 and MEL-28 cancer cells; assay type: cell-based, human
Description: MEL-28 and MCF-7 cells were cultured in MEM medium supplemented with 10% fetal bovine serum (FBS) and in DMEM medium supplemented with 10% FBS, respectively. The AN3CA human endometrial adenocarcinoma cells were maintained in Eagle's MEM containing 10% FBS. Cancer cells were grown up to confluency in 12-well plates in 10% fetal-bovine serum-containing medium, then incubated in the presence of 1 μCi of [methyl-^14C]choline (bought from Amersham; Piscataway, N.J.) for 2 hours. Cells were first rapidly (within 30 seconds) washed three times with 4 ml of serum-free medium, then extracted with ice-cold methanol. This was followed by the determination of cellular free radiolabeled choline and phosphocholine (PCho) by column chromatography as described earlier [Kiss, Z. and Crilly, K. S. (1995), “Tamoxifen inhibits uptake and metabolism of ethanolamine and choline in multidrug-resistant, but not in drug-sensitive, MCF-7 human breast carcinoma cells,” FEBS Lett. 360, 165-168], and the separation and determination of radiolabeled phosphatidylcholine (PtdCho) by thin layer chromatography as indicated in Kiss [Kiss, Z. (1996), “Direct proof that phorbol ester accelerates the use of choline phosphate for phosphatidylcholine synthesis in intact cells,” Arch. Biochem. Biophys. 335, 191-196].
MCF-7 and MEL-28 cells were cultured as described earlier. The AN3CA human endometrial adenocarcinoma cells were maintained in Eagle's MEM containing 10% FBS. Each cell type was grown in 12-well plates to confluency and then incubated with 1 μCi of [methyl-^14C]choline for 2 hours in the absence (□) or presence of 100 μM CCDTHT ? or 0.5 mM HC-3 (▪), followed by the determination of cellular contents of radiolabeled choline (A), PCho (B) and PtdCho (C), as indicated in FIG. 9. […] Thus, if both CCDTHT and HC-3 influenced cell viability solely via inhibition of choline metabolism, then these agents should similarly affect cell viability, at least at the concentrations used in the choline transport experiment.

[2] = Toxicological studies in mice; assay type: in vivo, mouse; settings: 200-500 μmole/animal
Description: Accordingly, a well-tolerated dose for CCDTHT in mice is 450 μmole/animal (weighing about 25 g) which corresponds to a dose of 4.6 mg/kg. Therapeutically effective concentrations in humans will exert maximal inhibitory effects on the growth of non-healthy tissues without causing significant toxicity in normal healthy tissues.
Parallel toxicological studies also have been performed with 200-500 μmole/animal doses of the commercially available CCompound1. […] CCompound26, which may have an even better toxicity profile based on in vitro experiments with normal cells, was synthesized much later and has not yet been tested in animal experiments.

[3] = tested on: MCF-7 cells; test: Viability of MCF-7 breast cancer cells; assay type: cell-based, human; settings: 0-200 μM, 72 hours, MTT
Description: (§1) To quantify cell death, around the time when significant and characteristic morphological changes took place, cells were pulse-labeled for 10 minutes with [^3H]thymidine to measure DNA activity as described elsewhere [Tomono, M. and Kiss, Z. (1995), “Ethanol enhances the stimulatory effects of insulin and insulin-like growth factor-I on DNA synthesis in NIH 3T3 fibroblasts,” Biochem. Biophys. Res. Commun. 208, 63-67]. Also, cells were collected as suspensions using trypsin, an established method in cell biology, followed by re-plating of cells in fresh tissue culture medium. If no viable cells were obtained after one week in culture, it meant that the cells at the time of re-plating were dead. Survival values obtained with untreated cells were considered 100%. For the determination of relative number of viable cells after treatments, in most cases the MTT assay was used. This calorimetric assay is based on the ability of living cells, but not dead cells, to reduce 3-(4,5-dimethyl thiazol-2-yl)-2,5-diphenyltetrazolium bromide [Carmichael, J, De Graff, W. G., Gazdar, A. F., Minna, J. D. and Mitchell, J. B. (1987), “Evaluation of tetrazolium-based semi-automated calorimetric assay: Assessment of chemosensitivity testing,” Cancer Res. 47, 936-942]. For this assay, cells were plated in 96-well plates, and the MTT assay was performed both in untreated and treated cell cultures. The MTT assay also was performed at the start of treatments to allow assessment of proliferation rates in the control and treated cell cultures.
About 50% confluent cultures of MCF-7 cells, cultured in 12-well plates in Dulbecco's modified Eagle's medium (DMEM) supplemented with 10% FBS, were either untreated (FIG. 3A), or were treated with 100 μM CCDTHT (CCompound3) for 72 hours (FIG. 3B). […] This experiment was repeated three times with similar results. In some experiments, cells from the CCDTHT-treated cultures were seeded into 96-well plates, and the MTT assay was performed 96 hours later to test for viable cells.
(§2) The NIH 3T3 (normal) mouse fibroblast, A431 human epidermoid adenocarcinoma, and MCF-7 human breast cancer cells were cultured in DMEM medium containing 10% FBS. The MEL-28 human melanoma cells were cultured in MEM medium containing 10% FBS. The HT-29 human colon adenocarcinoma cells were cultured in McCoy's 5a medium containing 10% FBS. The A549 human lung carcinoma cells were maintained in Ham's F12K medium containing 10% FBS. Cells were seeded into 96-well plates and treated at ˜70-90% confluency. Two hours before treatments the medium was changed for fresh 10% serum medium, and then the cells were incubated for 72 hours in the presence of 0-200 μM of CCompound1 (●) or CCompound3 (CCDTHT) (▴), as indicated. The MTT assay was used to determine cell viability after treatments. The values, shown in FIGS. 5A-5F and expressed as percent decrease in viability compared to the untreated control cells, are the mean±std. dev. of 8 incubations in one experiment. Similar results were obtained in another experiment.
NIH 3T3, AN3CA, HT-29, MEL-28, and MCF-7 cells were cultured as described earlier. Cells were seeded into 96-well plates; when cells were ˜80-90% confluent, the medium was changed for fresh 10% serum-containing medium, followed by incubations for 72 hours in the absence (□) or presence of 100 μM CCDTHT ? , 2 mM ethanolamine (Etn) ? , or 100 μM CCDTHT+2 mM Etn (▪). The MTT assay was used to determine cell viability. […]

[4] = tested on: A-431 cells; test: Viability of A-431 epidermoid adenocarcinoma cells (MTT assay); assay type: cell-based, human; settings: 0-200 μM, 72 hours, MTT
Description: as §1, §2
(§3) NIH3T3, T47D, A-431, HT-29, and MEL-28 cells were cultured as indicated earlier. CaOV-3 human ovarian cancer cells were cultured in DMEM containing 10% FBS. ZR-75-1 human estrogen receptor-positive breast cancer cells were maintained in RPMI 1640 medium supplemented with 10% FBS. HTB-157 human fetal fibroblasts, MEL-24 human malignant melanoma cells, Hep G2 human hepatoblastoma cells, and CaCO-2 human colon adenocarcinoma cells were maintained in Eagles's MEM containing 10% FBS. MB-231 human estrogen receptor-negative breast cancer cells were maintained in Leibovitz's L-15 medium supplemented with 10% FBS. Cells were seeded into 96-well plates and treated at ˜70-90% confluency. Two hours prior to treatments the medium was changed for fresh 10% serum medium, and then the cells were incubated for 10 days in the absence (□) or presence of 50 μM CCDTHT ? or 100 μM CCDTHT (▪). The medium was changed and the cells were re-treated on days 3 and 6. The MTT assay was used to determine cell viability on day 10. The data, shown in FIG. 6, are the mean±std. dev. of 8 incubations in one experiment. (The experiment was repeated twice with similar results).
(§4) NIH 3T3, MEL-28, MEL-24, CaOV-3, ZR-75-1, and T47D cells were cultured as described above. The OVCAR human ovarian cancer cells were cultured in DMEM containing 10% FBS. Cells were seeded into 96-well plates and used at ˜60-80% confluency. […]

[5] = tested on: NIH 3T3 cells; test: Viability of NIH 3T3 normal fibroblasts (MTT assay); assay type: cell-based; settings: 0-200 μM, 72 hours, MTT
Description: as §1, §2, §3, §4

[6] = cited from earlier work

C[N+]1(C)CCOC(O)(c2ccc(-c3ccc(C4(O)C[N+](C)(C)CCO4)cc3)cc2)C1.[Br-].[Br-] (stereo not shown) [HC-3]
inhibitory effects on choline uptake and metabolism (choline, PCho, PtdCho) ([1]; 100 μM CCDTHT or 0.5 mM HC-3, 2 hours, each cell line): comparably strong inhibitory effects
inhibition of choline transport ([1]; 0.1 mM): 20-25%

Cc1c(OCC(O)C[N+](C)(C)C)cc2c(=O)c3ccccc3sc2c1C.[Cl-] (stereo not shown) [CCcompound1, [3-(3,4-Dimethyl-9-oxo-9H-thioxanthen-2-yloxy)-2-hydroxypropyl]trimethyl-ammonium chloride, reference compound]
tolerability [2]: similarly well tolerated
decrease in viability, MCF-7 [3]: similarly large effects
decrease in viability, A-431 [4]: similarly large effects
toxic effects in NIH 3T3 (normal) fibroblast cultures [5]: none of these compounds exerted major toxic effects

B1: PALP: human placental alkaline phosphatase, highly purified from commercial (Sigma-Aldrich) PALP (protein, UniProt P05187 23-506, looked up)
Alkaline phosphatase, …: IIPVEEENPDFWNREAAEALGAAKKLQPAQTAAKNLIIFLGDGMGVSTVTAARILKGQKKDKLGPEIPLAMDRFPYVALSKTYNVDKHVPDSGATATAYLCGVKGNFQTIGLSAAARFNQCNTTRGNEVISVMNRAKKAGKSVGVVTTTRVQHASPAGTYAHTVNRNWYSDADVPASARQEGCQDIATQLISNMDIDVILGGGRKYMFRMGTPDPEYPDDYSQGGTRLDGKNLVQEWLAKRQGARYVWNRTELMQASLDPSVTHLMGLFEPGDMKYEIHRDSTLDPSLMEMTEAALRLLSRNPRGFFLFVEGGRIDHGHHESRAYRALTETIMFDDAIERAGQLTSEEDTLSLVTADHSHVFSFGGYPLRGSSIFGLAPGKARDRKAYTVLLYGNGPGYVLKDGARPDVTESESGSPEYRQQSAVPLDEETHAGEDVAVFARGPQAHLVHGVQEQTFIAHVMAFAACLEPYTACDLAPPAGTTD
half-life time [6]: 120 to 140 h
